Results on five compounds are retold here after US7544814B2, “[3.2.0] Heterocyclic compounds and methods of using the same” (Nereus Pharmaceuticals, Inc., priority 2004, dated 2009).

In series [1] the test system is U266.
The target in series [2] is T1, chymotrypsin-like activity of purified rabbit muscle 20S proteasome (Oryctolagus cuniculus, UniProt G1T4Q9).
T1 sequence (G1T4Q9 1-263): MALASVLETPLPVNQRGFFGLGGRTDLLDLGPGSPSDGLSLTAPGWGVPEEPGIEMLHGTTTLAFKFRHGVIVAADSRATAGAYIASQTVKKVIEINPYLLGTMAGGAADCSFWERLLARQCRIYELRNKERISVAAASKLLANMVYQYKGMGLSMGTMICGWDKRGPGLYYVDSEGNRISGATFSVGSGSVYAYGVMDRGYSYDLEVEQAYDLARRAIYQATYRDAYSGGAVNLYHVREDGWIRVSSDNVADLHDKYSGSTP
In words: In vitro inhibition of 20S proteasome chymotrypsin-like activity (suc-LLVY-AMC).

In series [3] the test system is RPMI 8226. In words: Cell growth inhibition (resazurin), RPMI 8226. The conditions noted are these: Homo sapiens, RPMI-8226, 48 h, read-out: RPMI 8226 EC50, Table 2; 48 hours drug exposure; mean ± SD where n≥3. (The colour change of resazurin is a common sign of viable cells or microbes.)
Series [4] concerns the target T2, caspase-like activity of purified rabbit muscle 20S proteasome (Oryctolagus cuniculus, UniProt A0A5F9DQW2).
T2 sequence (A0A5F9DQW2 1-212): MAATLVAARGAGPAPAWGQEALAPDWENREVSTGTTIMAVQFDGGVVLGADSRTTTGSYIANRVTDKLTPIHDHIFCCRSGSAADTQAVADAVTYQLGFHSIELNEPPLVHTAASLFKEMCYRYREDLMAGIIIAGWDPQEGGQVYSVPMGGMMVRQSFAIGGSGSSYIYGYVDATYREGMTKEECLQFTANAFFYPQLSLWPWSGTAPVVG
In words: In vitro inhibition of 20S proteasome caspase-like activity (Z-LLE-AMC). As to conditions: EC50 Caspase-like, Table 6, values in μM.

Series [5] addresses T3, trypsin-like activity of purified rabbit muscle 20S proteasome (Oryctolagus cuniculus, UniProt G1SWK8).
T3 sequence (G1SWK8 1-271): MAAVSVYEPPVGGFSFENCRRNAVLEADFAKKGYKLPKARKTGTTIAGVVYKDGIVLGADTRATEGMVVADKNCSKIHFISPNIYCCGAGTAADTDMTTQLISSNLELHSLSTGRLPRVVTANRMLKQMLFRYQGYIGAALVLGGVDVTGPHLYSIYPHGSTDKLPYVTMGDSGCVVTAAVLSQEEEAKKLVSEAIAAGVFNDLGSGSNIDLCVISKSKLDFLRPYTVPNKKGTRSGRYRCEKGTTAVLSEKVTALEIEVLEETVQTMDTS
In words: biochemical.

In series [6] the test system is U266. In words: Cell growth inhibition (resazurin), U266. As to conditions: 48 hours drug exposure.
The target in series [7] is T4, chymotrypsin-like activity of 20S proteasomes in RPMI 8226 cells (Homo sapiens, UniProt P28074).
T4 construct: added to 2.5×10^5/ml RMPI 8226 cells; endogenous in cells; host or cells: RPMI 8226 (ATCC CCL-155)
T4 sequence (P28074 60-263): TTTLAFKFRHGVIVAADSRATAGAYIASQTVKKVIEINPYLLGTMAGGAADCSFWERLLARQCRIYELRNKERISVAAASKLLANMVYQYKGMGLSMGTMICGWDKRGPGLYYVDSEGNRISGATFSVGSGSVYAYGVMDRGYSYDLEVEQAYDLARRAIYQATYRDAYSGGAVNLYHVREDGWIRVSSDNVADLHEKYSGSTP
In words: Chymotrypsin-like activity of 20S proteasomes in lysates of treated RPMI 8226 cells. It is filed as cell-based. The conditions noted are these: RPMI-8226, read-out: % inhibition of the chymotrypsin-like activity of 20S proteasomes in RPMI 8226 cell lysates. The protocol:
RPMI 8226 (ATCC, CCL-155), the human multiple myeloma cell line, was cultured in RPMI 1640 medium supplemented with 2 mM L-glutamine, 100 units/ml penicillin, 100 μg/ml streptomycin, 1 mM sodium pyruvate and 10% heat inactivated fetal bovine serum at 37° C., 5% CO2 and 95% humidified air. […] DMSO was used as the vehicle control at a final concentration of 0.1%. Following 1 hr incubation of RMPI 8226 cells with the compounds, the cells were pelleted by centrifugation at 2,000 rpm for 10 sec at room temperature and washed 3× with ice-cold 1× Dulbecco's Phosphate-Buffered Saline (DPBS, Mediatech, Herndon, Va.). DPBS washed cells were lysed on ice for 15 min in lysis buffer (20 mM HEPES, 0.5 mM EDTA, 0.05% Triton X-100, pH 7.3) supplemented with protease inhibitor cocktail (Roche Diagnostics, Indianapolis, Ind.). Cell debris was pelleted by centrifugation at 14,000 rpm for 10 min, 4° C. and supernatants (=cell lysates) were transferred to a new tube. Protein concentration was determined by the BCA protein assay kit (Pierce Biotechnology, Rockford, Ill.). […] The released coumarin (AMC) was measured fluorometrically by using λex=390 nm and λem=460 nm. The assay was performed in a microtiter plate (Corning 3904) and followed kinetically with measurements every five minutes for 2 hr. The total amount of protein used for each assay was 20 μg. The final concentration of Suc-LLVY-AMC and DMSO was 20 μM and 0.2%, respectively.

Series [8] has as its target T5, chymotrypsin-like activity of 20S proteasomes in PC-3 cells (Homo sapiens, UniProt P28074).
T5 construct: endogenous in cells; host or cells: PC-3 (ATCC CRL-1435)
In words: Chymotrypsin-like activity of 20S proteasomes in lysates of treated PC-3 cells. Type of series: cell-based. The conditions noted are these: 100 nM, 1 hr incubation. Here is the method: PC-3 (ATCC, CRL-1435), the human prostate cancer cell line, was cultured in F12K medium supplemented with 2 mM L-glutamine, 100 units/ml penicillin, 100 μg/ml streptomycin and 10% heat inactivated fetal bovine serum at 37° C., 5% CO2 and 95% humidified air. […] DMSO was used as the vehicle control at a final concentration of 0.1%. Following 1 hr incubation of PC-3 cells with the compounds, the cells were washed 3× with ice-cold 1× Dulbecco's Phosphate-Buffered Saline (DPBS, Mediatech, Herndon, Va.). […] Cell debris was pelleted by centrifugation at 14,000 rpm for 10 min, 4° C. and supernatants (=cell lysates) were transferred to a new tube. Protein concentration was determined by the BCA protein assay kit (Pierce Biotechnology, Rockford, Ill.). […] The released coumarin (AMC) was measured fluorometrically by using λex=390 nm and λem=460 nm. The assay was performed in a microtiter plate (Corning 3904) and followed kinetically with measurements every five minutes for 2 hr. The total amount of protein used for each assay was 20 μg. The final concentration of Suc-LLVY-AMC and DMSO was 20 μM and 0.2%, respectively. Results are presented as the percent inhibition of the 20S proteasome chymotrypsin-like activity relative to the DMSO control.

For another series, the system named is MES-SA/Dx5. In words: Cell growth inhibition (resazurin), multidrug resistant MES-SA/Dx5. The conditions noted are these: for EC50: Table 3, 48 hours drug exposure. It is filed as cell-based, human.
In series [9] the test system is RPMI 8226. In words: cells. As to conditions: 1% or 10% FBS. The protocol:
RPMI 8226 (CCL-155), HT-29 (HTB-38), and B16-F10 (CRL-6475) cells were purchased from ATCC. RPMI 8226 cells were maintained in RPMI 1640 media supplemented with 10% (v/v) FBS, 2 mM L-glutamine, 1 mM sodium pyruvate and Penicillin/Streptomycin at 100 IU/ml and 100 μg/ml, respectively. HT-29 cells were maintained in McCoys 5A supplemented with 10% (v/v) FBS, 2 mM L-glutamine, 1 mM sodium pyruvate, 1% (v/v) non-essential amino acids, 10 mM HEPES and Penicillin/Streptomycin at 100 IU/ml and 100 μg/ml, respectively. B16-F10 cells were maintained in DMEM supplemented with 10% (v/v) FBS, 2 mM L-glutamine, 10 mM HEPES and Penicillin/Streptomycin at 100 IU/ml and 100 μg/ml, respectively.
RPMI 8226 cells were seeded at 2×10^4 cells/well in 90 μl RPMI media containing 10% (v/v) FBS or 1% (v/v) FBS into 96 well black-walled, clear-bottom tissue culture plates. […] Formulae II-16, II-17 and Formula II-18 were serially diluted in media containing 1% or 10% FBS and added in triplicate to the test wells. […] The final concentration of Formula II-18 ranged from 2 μM to 630 pM.

A further series relates to HL-60/MX2. In words: Cell growth inhibition (resazurin), multidrug resistant HL-60/MX2. The conditions noted are these: ratio of EC50 values (HL-60/MX2:HL-60). The protocol:
Concentrations ranging from 6.32 μM to 2 nM were tested for II-2 and II-4.
HL-60/MX2 is a multidrug resistant tumor cell line derived from the human promyelocytic leukemia cell line, HL-60 and expresses reduced topoisomerase II activity. […] Mitoxantrone, the topoisomerase II targeting agent was included as a control.

“And” between values parts separate entries of the source, which are not always exact repeats. Equal entries are not always repeated. Where two headings read alike, the source gives them in different places.

For the compound `C[C@@]12OC(=O)[C@]1([C@@H](O)[C@H]1CCC[C@H](Cl)[C@H]1O)NC(=O)[C@@H]2CCCl` [Formula IV-3C], the “cytotoxicity against U266, in words” value in the series with U266 [1] was “cytotoxic”. In addition, the EC50 was 4.9 µM and 10.6 µM in series [2] (EC50 Chymotrypsin-like, Table 6, values in μM); 1.4 to 10.6 µM in [2] (EC50 values, chymotrypsin-like activity, range or bound stated in text, summary of Table 6); more than 20 µM in the series with RPMI 8226 [3]; more than 20 µM in series [4]; more than 20 µM in series [5]; 7.76 µM with U266 [6] (Homo sapiens, U-266, 48 h, read-out: U266 EC50, Table 2). In the series with U266 [6] (read-out: U266 EC50, Table 2), the EC50 was determined as 8.29 µM.

Regarding `CC(C)[C@H](O)[C@@]12NC(=O)[C@H](C)[C@@H]1OC2=O` [Omuralide, reference compound], the inhibition at 0.001 µM in [7] (1 nM, 1 hr incubation, mean ± SD, n = 3) was 5 ± 9%. Moreover, the inhibition at 0.005 µM in [7] (5 nM, 1 hr incubation, mean ± SD, n = 3) is 8 ± 9%. In addition, the inhibition at 0.05 µM in series [7] (50 nM, 1 hr incubation, mean ± SD, n = 3) stood at 17 ± 11%. In addition, the inhibition at 0.1 µM in series [7] (100 nM, 1 hr incubation, mean ± SD, n = 3) was 32 ± 8%; in series [8] (PC-3, read-out: % inhibition of the chymotrypsin-like activity of 20S proteasomes in PC-3 cell lysates) it was 36%. The inhibition at 0.5 µM in series [7] (500 nM, 1 hr incubation, mean ± SD, n = 3) came out at 68 ± 11%. In addition, in [8], the “% inhibition of the chymotrypsin-like activity of 20S proteasomes in PC-3 cell lysates” value was determined as 36%.

As for `CC(=O)O[C@H]1C(=O)[C@@]2(C)[C@H]([C@H](OC(=O)c3ccccc3)[C@]3(O)C[C@H](OC(=O)[C@H](O)[C@@H](NC(=O)c4ccccc4)c4ccccc4)C(C)=C1C3(C)C)[C@]1(OC(C)=O)CO[C@@H]1C[C@@H]2O` [Paclitaxel], the EC50 in the series with MES-SA/Dx5 (Homo sapiens, MES-SA/Dx5, 48 h) was 2.93 µM; in the series with MES-SA/Dx5, 5.21 µM. The Fold change in the series on MES-SA/Dx5 (ratio of EC50 values (MES-SA/Dx5:MES-SA)) was approximately 800 fold.

Take `CC[C@H]1C(=O)N[C@@]2([C@@H](O)[C@@H]3C=CCCC3)C(=O)O[C@@]12C` [Formula II-17]: the “cytotoxicity against RPMI 8226 in media containing 1% or 10% FBS, in words” value with RPMI 8226 [9] is listed as “cytotoxic”. Also, in [7], the inhibition at 0.001 µM turned out to be 6 ± 6%, the inhibition at 0.005 µM is 10 ± 5%, the inhibition at 0.01 µM is 6 ± 6% and the inhibition at 0.05 µM was found to be 26 ± 5%. In series [7], the inhibition at 0.1 µM was 30 ± 4%, the inhibition at 0.5 µM was 39 ± 3%, the inhibition at 1 µM worked out at 46 ± 4% and the inhibition at 10 µM stood at 65 ± 5%. Further, the EC50 in [5] was 0.573 µM and 0.602 µM. For the same compound, the “% inhibition of the chymotrypsin-like activity of 20S proteasomes in PC-3 cell lysates” value in series [8] stood at 26%.

With `O=C1c2c(O)ccc(O)c2C(=O)c2c(NCCNCCO)ccc(NCCNCCO)c21` [Mitoxantrone, reference compound], the Fold change with HL-60/MX2 is on record as approximately 30 fold.

Usually EC50 stands for the concentration needed to bring the measured effect to its halfway point. The inhibition is the share of the control response that was lost under treatment.
